Measured values as given in patent US8394832B2, “Methods and compositions using immunomodulatory compounds for the treatment of immunodeficiency disorders” (Celgene Corporation, priority 2004, dated 2013).

Legend:
Format in all cases: cell-based, human
[1] = tested on: IL-6; assay: Measurement of cytokine IL-6 by Luminex in B cells
Description: (§1) Human buffy coat (50 ml) was diluted with 50 ml sterile PBS (Ca^++, Mg^++ free), and mixed gently. A 25 ml aliquot of diluted buffy coat was transferred to each 50 ml centrifuge tube, and Histopaque-1077 (14 ml, #1077-1, Sigma) was gently layered into the bottom of the tube. The sample was centrifuged at 2,000 rpm for 30 min at room temperature. The interface containing mononuclear cells was transferred into 50 ml centrifuge tube, and washed once with PBS (1200 rpm, 5 min). The supernatant was discarded. Cell pellet was resuspended in Miltenyi buffer. Anti-CD19^+ microbeads were added to the suspension (10^7 cells in 80 μl of buffer, 20 μl antibody beads for 10^7 cells) and incubated for 15 min at 4° C. Cell pellet was washed once and resuspended in 1 ml Miltenyi buffer. The cell suspension was added to the magnetic column, washed with 10 ml Miltenyi buffer in the column. CD19^+ cells are released by 1 ml Miltenyi Buffer without magnetic field. CD19^+ cells were washed twice with RPMI complete medium. B cells (2×10^5) were plated in 96 well plate.
B cells were treated with 1,3-dioxo-(2,6-dioxopiperidin-3-yl)-4-aminoisoindoline at 60 μM, 6 μM, 0.6 μM, 0.06 μM, 0.006 μM and 0.0006 μM in presence of anti IgM, anti CD40 and IL-4 for 3 days. Supernatant (25 μl) was collected and incubated with 25 μl anti IL-6 beads for about 1 hour. […] The plate was read on Bio-Plex instrument (Bio-Rad).

[2] = tested on: B cells; assay: Morphological changes of activated B cells (phase contrast microscopy); settings: treated with compound and anti-IgM (FIG. 7B)
Description: as §1
B cells were treated with 1,3-dioxo-(2,6-dioxopiperidin-3-yl)-4-aminoisoindoline (FIG. 6) in presence of anti IgM, anti CD40 and IL-4 for 3 days. The images were captured using phase contrast microscopy with MetaMorph software.
Morphological changes also support IMiDs' costimulation of B cells to drive their proliferation. […]

[3] = tested on: HLA-DR; assay: FACS analysis of HLA-DR expression on B cells
Description: as §1
(§2) B cells were treated with 1 μM 1,3-dioxo-(2,6-dioxopiperidin-3-yl)-4-aminoisoindoline in presence of LPS; CD40 ligand and IL-4; or BAFF for 3 days. The suspension of B cells was washed by PBS once, and incubated with FITC conjugated anti human CD40, PE conjugated anti human CD80, or PerCP-Cy5.5 conjugated anti human HLA-DR for 30 min in the dark. B cells were subject to FACS analysis using BD FACSAria (BD biosciences).
In addition to the suppression of IL-4 induced proliferation, CD40+IL-4 induced HLA-DR expression was also examined. B cells were treated by 1,3-dioxo-(2,6-dioxopiperidin-3-yl)-4-aminoisoindoline with CD40L+IL-4 for 72 hours, and the cell surface expression markers CD40 and HLA-DR were measured by FACS. […] In contrast, for the B cells that were treated with BAFF, 1,3-dioxo-(2,6-dioxopiperidin-3-yl)-4-aminoisoindoline increased CD40 expression by 60% and HLA-DR expression by 86% (FIG. 11F). The data are consistent with the previous observation that immunomodulatory compounds have no effect on CD40+IL-4 signaling.

[4] = tested on: CD69; assay: FACS analysis of CD69 expression in CD19+ B cells
Description: as §1
B cells were treated with 1,3-dioxo-(2,6-dioxopiperidin-3-yl)-4-aminoisoindoline (FIG. 3A) or 1-oxo-(2,6-dioxopiperidin-3-yl)-4-aminoisoindoline (FIG. 3B) in presence of anti IgM, anti CD40 and IL-4 for 3 days. The suspension of B cells was washed by PBS once, and incubated with FITC conjugated anti human CD69 for 30 min in the dark. B cells were subject to FACS analysis using flow cytometer (EPICS XL-MCL, Beckman Coulter Company).
To assess whether the effects of immunomodulatory compounds on IL-4 signaling impact on IL-4 mediated B cell activation, FACS array of immediate early expression marker CD69 expression at triplicates and six doses was examined using 1,3-dioxo-(2,6dioxopiperidin-3-yl)-4-aminoisoindoline or 1-oxo-(2,6-dioxopiperidin-3-yl)-4-aminoisoindoline. […] Thus, it is clear that immunomodulatory compounds have no impact on this process.

[5] = tested on: CD80; assay: FACS analysis of CD80 expression on B cells; settings: normal B cells, 1 μM
Description: as §1
as §2, with “B cells were subject to FACS analysis using BD FACSAria (BD biosciences).” left out

[6] = tested on: TNFα; assay: TNFα ELISA of treated B cells; settings: activated CD19+ cells (FIG. 4)
Description: as §1, with “plate. […]” for “plate.”
TNFα levels in 1,3-dioxo-(2,6-dioxopiperidin-3-yl)-4-aminoisoindoline or 1-oxo-(2,6-dioxopiperidin-3-yl)-4-aminoisoindoline treated B cells were determined using TNFα ELISA.

`Nc1cccc2c1C(=O)N(C1CCC(=O)NC1=O)C2=O` (centres unmarked) [1,3-dioxo-(2,6-dioxopiperidin-3-yl)-4-aminoisoindoline] was tested, and the IL-6 expression ([1]; compound alone (FIG. 5A)) was “did not enhance”, the IL-6 expression ([1]; in combination with anti IgM, anti CD40 and IL-4, 3 days, 0.0006-60 μM (FIG. 5B)) was “enhanced” and the “morphological changes of B cells” value [2] was “formed large aggregates”. For the same molecule, the “increase of HLA-DR expression” value ([3]; B cells treated with BAFF (FIG. 11F)) was 86%, the HLA-DR expression ([3]; B cells treated with BAFF or LPS, 1 μM, 3 days (FIG. 2B)) was “upregulated” and the “CD40+IL-4 induced HLA-DR expression” value ([3]; B cells with CD40L+IL-4 for 72 hours (FIG. 11E)) was “no enhancement”. For the same molecule, the CD69 expression ([4]; CD19+ B cells treated with anti human IgM, anti human CD40 and IL-4, 3 days (FIGS. 3A, 3B)) was “dose-dependently enhanced”, the CD69 expression ([4]; IL-4 stimulated CD19+ B cells, triplicates, six doses (FIGS. 10A and B)) was “neither immunomodulatory compound inhibited” and the “number of B cells expressing CD80” value ([5]; CD40 ligand and IL-4, 3 days (FIG. 1B)) was “increased”. The CD80 expression ([5]; in the presence of CD40 ligand and IL-4, 3 days (FIG. 1A)) was “increased” and the “TNFα production in B cells” value [6] was “dose dependently enhance”.
